Source: PMC6895912 (Cancers, 2019)
“Also recorded” adds a separate entry of the source.

How the values were obtained:
[1] = test system: CWR-R1, CWR-R1 (10E), CWR-R1-MTX20nM cells; assay: Colony formation (clonogenicity) assay; format: cell-based, human; conditions: parental CWR-R1 and drug-resistant counterparts, 14 days
Excerpt: (A) Comparative GI50 values of Gal, NGGAs, and enzalutamide (ENZ) in drug-naïve-/-resistant prostate cancer cells. (B) Gal and NGGAs induce G1 cell cycle arrest in LNCaP cells. (C) VNPP414 and VNPP433-3β deplete the cell cycle regulator, cyclin D1, and upregulate p21; “+” indicates specific treatments. (D) Gal cause dose-dependent depletion of cyclin D1. (E) Unlike ENZ, Gal and VNPP433-3β inhibit colony formation of drug-naïve/-resistant cells in vitro. 1000 cells/well (CWR-R1, CWR-R1 (10E), CWR-R1-MTX20nM), seeded in 6-well plates were treated with indicated concentrations of compounds for a period of 14 days. Media containing compounds were replaced every 3 days. Colonies were stained with 0.05% crystal violet. (F) Quantification of colony formation units (CFU) in drug-naive/resistant cells. Colony assays were repeated three times and colonies counted in four quadrants of the wells. Results are represented as averages with S.E.M. (* p < 0.05, ** p < 0.001). Note: the numbers in parentheses in Figure 2B,C,E are concentrations of the agents in µM.
0.1 × 10^3 cells per well were seeded in 6-well plates and allowed to attach overnight (16 h), cells were treated with compounds in regular media (RPMI with 10% FBS) at the indicated concentrations and replaced every 3rd day for 14 days or until visible colonies could be counted. Colonies were washed and stained with 0.05% crystal violet for 30 min. Colonies were scanned and quantified (colonies counted in four quadrants of each well) with ImageJ colony counter. Results are represented as the mean of triplicates.

[2] = test system: CWR22Rv1 xenografts; assay: Antitumor efficacy in castration-resistant CWR22Rv1 xenograft model; format: in vivo, male NOD SCID mice; conditions: 25 mg/kg PO once daily, 16 days; listed as ENZ
Method: Following the in vitro studies and determination of the PK parameters, we then investigated the relative efficacy. Gal and the NGGAs in vivo using difficult-to-treat castration-resistant CWR22Rv1 xenografts. Given the enhanced IP and PO PK parameters of VNPP414 and VNPP433-3β over Gal, we decided to use lower doses of the new analogs compared to the previous Gal doses (200 mg/kg, IP/PO). Gal (200 mg/kg) served as positive control, while ENZ (25 mg/kg) administered PO was used as negative control. Male NOD SCID mice bearing CWR22Rv1 tumors were treated with vehicle, ENZ, Gal, VNPP414, and VNPP433-3β for 16 days as described in the Methods and Materials Section. […] In contrast, Gal and the NGGAs caused statistically significant tumor growth inhibition (TGI). […] It is notable that VNPP433-3β (at 7.5- and 15-fold lower molar doses) and VNPP414 (at 4-fold lower molar dose) are more efficacious than Gal. In general, no host toxicities were observed, as monitored by changes in animal body weight (Figure 7C).
Figure 7 Effects of Gal, NGGAs and ENZ in an in vivo castration-resistant prostate cancer model. (A) Mice bearing CWR22Rv1 xenografts (5 mice per group) were treated with vehicle, Gal (100 mg/kg/twice daily), VNPP414 (60 mg/kg, once daily), VNPP433-3β (15 or 30 mg/kg, once daily) and ENZ (25 mg.kg, once daily) 5 days per week for 16 days. Tumor volumes were measured twice a week and the tumors were collected. Tumor growth inhibition (TGI) values are indicated at the right of each growth curve, and the error bars are the SEM. Results are represented as means ± SEM. ^# p = ns (not significant vs. vehicle), ^$ p < 0.0272 vs. vehicle, * p < 0.0035 vs. vehicle, ** p < 0.0025 vs. vehicle and *** p < 0.0008 vs. vehicle. (B) Photographed tumors from each group. (C) Mean body weights of mice determined during the study. (D) Western blot analyses of tumor samples from each experimental group at day 16. […] It is left out because vehicle is a control, not a substance.
Male NOD SCID mice 5–6 weeks of age were obtained from University of Maryland School of Medicine Veterinary Resources (Baltimore, MD, USA. Mice were housed under complete aseptic conditions, fed autoclaved pellets and sterile water ad libitum. Following a week of acclimatization, approximately 5 × 10^6 CWR22Rv1 cells were inoculated one flank f mice. Tumor-bearing mice (tumor volume around ~100 mm^3) were randomized into 6 groups (5 mice in each group; compounds formulated in vehicle) and treated as follows: (i) vehicle control (40% β-cyclodextrin in saline, PO.), (ii) ENZ (25 mg/kg, PO, once daily), (iii) Gal (100mg/kg, PO, twice daily), (iv) VNPP414 (60 mg/kg, PO, once daily), (v) VNPP433-3β (15 mg/kg, PO, once daily), and (vi) VNPP433-3β (30 mg/kg, PO, once daily) for 5 days/week. Tumors were measured twice weekly with calipers and tumor volume was calculated by the formula: length × width^2 × 0.5 (mm^3). Animals were also weighed weekly and monitored for general health status and signs of possible toxicity due to treatments. Mice were sacrificed after the indicated periods of treatment and tumors excised. Tumors were divided and either flash frozen in liquid nitrogen or placed in 10% buffered formalin for western blot analysis.

SMILES: CNC(=O)c1ccc(N2C(=S)N(c3ccc(C#N)c(C(F)(F)F)c3)C(=O)C2(C)C)cc1F [Enzalutamide, reference compound]
- inhibition of colony formation [1]: ineffective at the concentrations tested
- tumor volume versus vehicle-treated control (in words) [2]: ineffective; also recorded: no statistically significant difference
